Tests used:
[1] = tested on: Mycobacterium tuberculosis Erdman (autoluminescent); experiment: FIC90 (Loewe) at 90% inhibition (log2); higher = more antagonistic
Protocol: (§1)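 DiaMOND equipotent two-drug combination dose responses against autoluminescent M. tuberculosis Erdman in 8 in vitro models. Read-out is OD600, or luminescence for the intracellular and dormancy models, normalised to untreated wells. Hill-fit Einf, AUC25 and GRinf are potency metrics; FIC50 and FIC90 are Loewe-additivity fractional inhibitory concentrations, given as log2 (negative = synergy). Replicates are averaged.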

[2] = tested on: Mycobacterium tuberculosis Erdman (autoluminescent); experiment: AUC25, normalised area under dose response up to IC25 (fraction (0-1)); higher = more potent at low dose
Protocol: as §1

[3] = tested on: Mycobacterium tuberculosis Erdman (autoluminescent); experiment: Einf, fitted maximum growth inhibition of combination (fraction); higher = stronger maximal inhibition
Protocol: as §1

[4] = tested on: Mycobacterium tuberculosis Erdman (autoluminescent); experiment: FIC50 (Loewe) at 50% inhibition (log2); higher = more antagonistic
Protocol: as §1

[5] = tested on: Mycobacterium tuberculosis Erdman (autoluminescent); experiment: GRinf, maximum normalised growth rate inhibition (unitless (-1 to 1)); higher = less effect (negative = killing)
Protocol: as §1

[6] = tested on: Mycobacterium tuberculosis Erdman (autoluminescent); experiment: GRinf, maximum normalised growth rate inhibition (three-drug combination) (unitless (-1 to 1)); higher = less effect (negative = killing)
Protocol: (§2)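 DiaMOND equipotent three-drug combination dose responses (10 doses, 1.5- or 2-fold spacing, centred on IC90) against autoluminescent M. tuberculosis Erdman in 8 in vitro models. Read-out is OD600, or luminescence for the intracellular and dormancy models, normalised to untreated wells. Hill-fit Einf, AUC25 and GRinf are potency metrics; FIC50 and FIC90 are total Loewe fractional inhibitory concentrations as log2 (negative = synergy).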

[7] = tested on: Mycobacterium tuberculosis Erdman (autoluminescent); experiment: total FIC90 (Loewe) at 90% inhibition, three-drug combination (log2); higher = more antagonistic
Protocol: as §2

[8] = tested on: Mycobacterium tuberculosis Erdman (autoluminescent); experiment: total FIC50 (Loewe) at 50% inhibition, three-drug combination (log2); higher = more antagonistic
Protocol: as §2

[9] = tested on: Mycobacterium tuberculosis Erdman (autoluminescent); experiment: AUC25, normalised area under dose response up to IC25 (three-drug combination) (fraction (0-1)); higher = more potent at low dose
Protocol: as §2

[10] = tested on: Mycobacterium tuberculosis Erdman (autoluminescent); experiment: Einf, fitted maximum growth inhibition of three-drug combination (fraction); higher = stronger maximal inhibition
Protocol: as §2

CC(C)/N=c1\cc2n(-c3ccc(Cl)cc3)c3ccccc3nc-2cc1Nc1ccc(Cl)cc1 [clofazimine] + COc1c(N2C[C@@H]3CCCN[C@@H]3C2)c(F)cc2c(=O)c(C(=O)O)cn(C3CC3)c12 [moxifloxacin]
Conditions	AUC25, [2]	Einf, [3]	FIC50, [4]	FIC90, [1]	GRinf, [5]
in vitro model: acidic pH 5.7, time point: constant (~7 days, model-specific)	0.151	0.605	0.466	–	-0.0307
in vitro model: acidic pH 5.7, time point: terminal (~4-5 doublings, model-specific)	0.0976	0.937	0.107	0.181	-0.212
in vitro model: intracellular J774, time point: constant = terminal	–	0.953	–	0.341	-0.283

Conditions	AUC25, [2]	Einf, [3]	FIC50, [4]	FIC90, [1]	GRinf, [5]
in vitro model: butyrate, time point: constant (~7 days, model-specific)	0.109	0.955	0.486	1	-0.131
in vitro model: butyrate, time point: terminal (~4-5 doublings, model-specific)	0.0987	0.991	0.404	0.955	-0.125
in vitro model: cholesterol 0.05 mM, time point: constant (~7 days, model-specific)	0.153	0.711	0.262	–	-0.0492
in vitro model: cholesterol 0.05 mM, time point: terminal (~4-5 doublings, model-specific)	0.119	0.905	0.647	-0.276	-0.105
in vitro model: cholesterol-high 0.2 mM, time point: constant (~7 days, model-specific)	0.131	0.944	0.132	1.06	-0.922
in vitro model: cholesterol-high 0.2 mM, time point: terminal (~4-5 doublings, model-specific)	0.113	1	0.0758	0.41	-0.95
in vitro model: dormancy (butyrate + nitrate, low O2), time point: constant (~7 days, model-specific)	0.109	0.931	0.299	0.00346	-0.049
in vitro model: dormancy (butyrate + nitrate, low O2), time point: terminal (~4-5 doublings, model-specific)	0.0647	0.98	0.666	0.72	-0.241
in vitro model: standard 7H9 glycerol, time point: constant = terminal	0.109	0.971	0.11	0.558	-0.193
in vitro model: valerate, time point: constant (~7 days, model-specific)	0.139	0.895	-0.0703	–	-0.179
in vitro model: valerate, time point: terminal (~4-5 doublings, model-specific)	0.0871	0.941	0.137	0.7	-0.0272

NNC(=O)c1ccncc1 [isoniazid] + CC(=O)NC[C@H]1CN(c2ccc(N3CCOCC3)c(F)c2)C(=O)O1 [linezolid] + CO[C@H]1/C=C/O[C@@]2(C)Oc3c(C)c(O)c4c(O)c(c(/C=N/N5CCN(C)CC5)c(O)c4c3C2=O)NC(=O)/C(C)=C\C=C\[C@H](C)[C@H](O)[C@@H](C)[C@@H](O)[C@@H](C)[C@H](OC(C)=O)[C@@H]1C [rifampicin]
Conditions	AUC25, [9]	Einf, [10]	GRinf, [6]	total FIC50, [8]	total FIC90, [7]
in vitro model: acidic pH 5.7, time point: constant (~7 days, model-specific)	0.073	0.841	-0.0845	0.571	–
in vitro model: acidic pH 5.7, time point: terminal (~4-5 doublings, model-specific)	0.0682	0.972	-0.116	0.505	0.335
in vitro model: intracellular J774, time point: constant = terminal	–	0.947	-0.188	–	-0.141

Conditions	AUC25, [9]	Einf, [10]	GRinf, [6]	total FIC50, [8]	total FIC90, [7]
in vitro model: butyrate, time point: constant (~7 days, model-specific)	0.0943	0.915	0.0298	0.353	0.315
in vitro model: butyrate, time point: terminal (~4-5 doublings, model-specific)	0.0727	0.958	0.0122	0.184	0.0301
in vitro model: cholesterol 0.05 mM, time point: constant (~7 days, model-specific)	0.139	0.691	-0.14	0.356	–
in vitro model: cholesterol 0.05 mM, time point: terminal (~4-5 doublings, model-specific)	0.135	0.916	-0.324	4.8	-0.269
in vitro model: cholesterol-high 0.2 mM, time point: constant (~7 days, model-specific)	0.11	0.956	-0.355	0.569	–
in vitro model: cholesterol-high 0.2 mM, time point: terminal (~4-5 doublings, model-specific)	0.0902	0.997	-0.919	0.831	0.809
in vitro model: dormancy (butyrate + nitrate, low O2), time point: constant (~7 days, model-specific)	0.0701	0.891	0.192	0.857	0.12
in vitro model: dormancy (butyrate + nitrate, low O2), time point: terminal (~4-5 doublings, model-specific)	0.036	0.978	-0.111	0.231	0.0283
in vitro model: standard 7H9 glycerol, time point: constant = terminal	0.0756	0.899	0.148	0.299	-0.589
in vitro model: valerate, time point: constant (~7 days, model-specific)	0.0594	0.862	0.0129	0.491	–
in vitro model: valerate, time point: terminal (~4-5 doublings, model-specific)	0.035	0.934	0.0126	0.502	0.221

From the supplement of paper PMC8617591
